Assay results from PMC11078216, “Discovery of potent and selective activity-based probes (ABPs) for the deubiquitinating enzyme USP30” (RSC Chemical Biology, 2024).

Assays:
ALDH2 = molecular target: T1, ALDH2 (Homo sapiens, UniProt P05091); assay: ABPP chemical proteomics (LC-MS/MS) in HEK293T cells; format: cell-based
T1 construct: endogenous in cells; host or cells: HEK293T
T1 sequence (P05091 18-517): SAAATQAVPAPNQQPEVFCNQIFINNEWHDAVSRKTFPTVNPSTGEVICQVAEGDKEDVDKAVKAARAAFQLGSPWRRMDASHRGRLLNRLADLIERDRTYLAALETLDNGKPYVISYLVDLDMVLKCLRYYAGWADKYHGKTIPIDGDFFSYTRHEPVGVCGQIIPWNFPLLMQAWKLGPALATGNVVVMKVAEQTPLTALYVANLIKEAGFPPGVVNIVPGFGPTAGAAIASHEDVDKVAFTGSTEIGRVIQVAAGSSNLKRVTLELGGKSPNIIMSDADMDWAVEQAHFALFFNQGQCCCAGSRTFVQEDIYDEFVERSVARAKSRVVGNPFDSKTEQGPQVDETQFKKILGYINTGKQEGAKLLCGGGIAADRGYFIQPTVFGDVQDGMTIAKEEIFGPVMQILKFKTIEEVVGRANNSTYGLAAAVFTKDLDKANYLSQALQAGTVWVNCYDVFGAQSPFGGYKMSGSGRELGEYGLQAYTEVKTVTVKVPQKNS
Protocol: (§1) To explore the selectivity of IMP-2587 and IMP-2586 across the whole proteome, we performed quantitative activity-based protein profiling (ABPP) in HEK293T cells following treatment with IMP-2587 or IMP-2586 (Fig. 3a). After ABP incubation, cells were lysed, and probe-labelled proteins were ligated to biotinylated capture reagents.[27] […] USP30 was outcompeted by corresponding parent inhibitors for each ABP (Fig. 5b and d and Tables S3 and S5, ESI ^†), confirming the high potency and rapid engagement of IMP-2587 and IMP-2586 in cells. […] DESI1 and DESI2 are small ubiquitin-related modifier (SUMO) proteases,[3,29–32] and IMP-2587 and IMP-2586 may offer a starting point for future development of DESI ABPs. […]
(§2) d) Live cell probe incubation, lysate click chemistry and precipitation 6-well HEK293T cells were incubated with media containing compounds ABP 2 and ABP 4 at indicated concentrations for 1 h at 37 °C. The cells were washed with PBS and lysed with lysis buffer (50 μL (1% (v/v) Triton X-100, 0.1% (w/v) sodium dodecyl sulfate (SDS), EDTA-free complete protease inhibitor cocktail (1×, Roche) in PBS on ice for 10 min. The lysates were scraped and transferred to corresponding Lo-Bind Eppendorfs. Each lysate was sonicated for 1 minute, and the samples centrifuges at 5,000 x g at 4 °C for 5 minutes to pellet insoluble cellular debris. The supernatant was collected, and protein concentration was determined using the DC Protein Assay (Bio-Rad) as per manufacturer’s instructions, and normalised to lowest concentrated sample (e.g. 1 mg/mL, using lysis buffer). The following “click mixture” was prepared separately, preparing 6 μL for every 100 μL of […]
(§3) Capture reagent (AzRB/AzT for ABP 2, YnT/YnB for ABP 4 10 mM in DMSO, 1 vol; final concentration […]
(§4) CuSO4 (50 mM in water, 2 vol; final concentration in reaction 1 mM)
(§5) TCEP (50 mM in water, 2 vol; final concentration in reaction 1 mM)
(§6) TBTA (10 mM in DMSO, 1 vol; final concentration in reaction 100 µM)
(§7) The click mixture was vortexed and incubated at room temperature for 2 min before 6 μL of the mixture was added to every 100 μL of lysate. The reaction mixtures were shaken at room temperature for 1 h before being quenched with EDTA (500 mM in H2O) to a final concentration of 10 mM.
(§8) Proteins were precipitated by adding H2O (1 vol), MeOH (2 vol) and CHCl3 (0.5 vol), vortexing briefly then centrifuging at 17,000 × g for 5 min. The top H2O/MeOH layer was discarded and the middle layer of protein pellet and lower CHCl3 layer retained. The suspension was washed with MeOH (300 μL), and sonicated to break up the pellet. The proteins were pelleted by centrifugation at 10,000–17000 × g for 5–10 min or until a compact pellet was formed. The protein pellet was washed once more with MeOH (1 mL). The pellet was resuspended by sonicating and completely dissolving in 1% (w/v) SDS in PBS (to 5 mg/mL protein) before being made up to 1 mg/mL protein with PBS. […]
(§9) f) Neutravidin biotin enrichment (Affinity pull-down)
(§10) Click chemistry and precipitation steps were carried out as described in section 3.2.d, on at least 400ug of protein per sample. The pellet was resuspended by sonicating and completely dissolving in 1% (w/v) SDS in HEPES 50 mM pH 8.0, before being made up to 1 mg/mL protein with HEPES 50 mM pH 8.0 to […]
(§11) achieve a final concentration of 0.2% SDS. 20uL of each samples was collected as TL (Total lysate) samples. Pull down of biotinylated proteins was achieved by incubating samples with pre-equilibrated (3x 1 mL washes with 0.2% (w/v) SDS in HEPES 50 mM pH 8 buffer) Pierce™ NeutrAvidin™ Agarose beads for 3 hours at room temperature. NeutrAvidin™ Agarose beads were used in ratio of 1 μL bead resin per 10ug of protein sample. The beads were subsequently washed by moderate shaking for 10 seconds then briefly pelleting by table-top centrifuge then vacuum aspirating the supernatant with fine-end pipette tips (to not disturb the agarose) after collecting 20 µL supernatant as SN (supernatant […]
(§12) ) samples. […]

C21orf33 = molecular target: T2, C21orf33 (Homo sapiens, UniProt P0DPI2); assay: as above; format: cell-based
T2 construct: endogenous in cells; host or cells: HEK293T
T2 sequence (P0DPI2 42-268): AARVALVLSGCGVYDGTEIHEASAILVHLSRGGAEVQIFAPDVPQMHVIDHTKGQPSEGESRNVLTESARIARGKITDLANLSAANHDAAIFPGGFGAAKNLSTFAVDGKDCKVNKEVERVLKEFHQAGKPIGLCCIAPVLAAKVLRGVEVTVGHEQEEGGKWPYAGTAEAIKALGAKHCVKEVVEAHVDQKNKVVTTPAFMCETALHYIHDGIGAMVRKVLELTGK
Protocol: as §1, §2, §3, §4, §5, §6, §7, §8, §9, §10, §11, §12

[1] = IMP-2587 labelling vs DMSO, 30 nM, 10 min, HEK293T (Table S2, Fig.5a)
[2] = IMP-2586 labelling vs DMSO, 30 nM, 10 min, HEK293T (Table S4, Fig.5c)
[3] = compound 3 out-competition with IMP-2586 labelling, HEK293T (Table S5, Fig.5d)

N#CN1CC[C@H](CC(=O)Nc2cc(-c3cccc(Cl)c3)no2)C1 [compound 1, reference compound]
Difference (log2 fold change of enrichment) (ALDH2; compound 1 out-competition with IMP-2587 labelling, HEK293T (Table S3, Fig.5b)): -3.07

C#Cc1cccc(-c2cc(NC(=O)CC3CCN(C#N)C3)on2)c1 (stereo not shown) [IMP-2587]
Difference (log2 fold change of enrichment) (ALDH2; [1]): 3.49
Difference (log2 fold change of enrichment) (C21orf33; [1]): 0.92

N#CN1CC[C@@H](NC(=O)c2cc(-c3ccccc3Oc3ccc(N=[N+]=[N-])cc3)n[nH]2)C1 [IMP-2586]
Difference (log2 fold change of enrichment) (ALDH2; [2]): 2.13
Difference (log2 fold change of enrichment) (C21orf33; [2]): 3.93

N#CN1CC[C@@H](NC(=O)c2cc(-c3ccccc3Oc3ccccc3)n[nH]2)C1 [compound 3, reference compound]
Difference (log2 fold change of enrichment) (ALDH2; [3]): -1.64
Difference (log2 fold change of enrichment) (C21orf33; [3]): -3.65
